Reference: PubChem BioAssay AID2060510 (Molecular Pharmacology Branch, DTP, NCI, 2025)

Tested on: 439559-082-T-J2-PDC spheroids viability
Test: Anticancer human tumor 439559-082-T-J2-PDC patient-derived colon adenocarcinoma cell line growth inhibition [GQUAD]
Conditions: for IC50: curve of first compound; for viability, T/C: stronger effect = lower value
In short: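 Tumor cells were grown as complex spheroids with HUVEC endothelial cells and mesenchymal stem cells as stroma. G-quadruplex stabilizers were combined with targeted agents over half-log dilutions from near the clinical Cmax, or from 10 microM.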

[1] = second compound 0.0316 µM, first compound 0.0316 µM
[2] = second compound 0.0316 µM, first compound 0.1 µM
[3] = second compound 0.0316 µM, first compound 0.316 µM
[4] = second compound 0.0316 µM, first compound 1 µM
[5] = second compound 0.0316 µM, first compound 3.16 µM
[6] = second compound 0.0316 µM, first compound 10 µM
[7] = second compound 0.1 µM, first compound 0.0316 µM
[8] = second compound 0.1 µM, first compound 0.1 µM
[9] = second compound 0.1 µM, first compound 0.316 µM
[10] = second compound 0.1 µM, first compound 1 µM
[11] = second compound 0.1 µM, first compound 3.16 µM
[12] = second compound 0.1 µM, first compound 10 µM
[13] = second compound 0.316 µM, first compound 0.0316 µM
[14] = second compound 0.316 µM, first compound 0.1 µM
[15] = second compound 0.316 µM, first compound 0.316 µM
[16] = second compound 0.316 µM, first compound 1 µM
[17] = second compound 0.316 µM, first compound 3.16 µM
[18] = second compound 0.316 µM, first compound 10 µM
[19] = second compound 1 µM, first compound 0.0316 µM
[20] = second compound 1 µM, first compound 0.1 µM
[21] = second compound 1 µM, first compound 0.316 µM
[22] = second compound 1 µM, first compound 1 µM
[23] = second compound 1 µM, first compound 3.16 µM
[24] = second compound 1 µM, first compound 10 µM
[25] = second compound 3.16 µM, first compound 0.0316 µM
[26] = second compound 3.16 µM, first compound 0.1 µM
[27] = second compound 3.16 µM, first compound 0.316 µM
[28] = second compound 3.16 µM, first compound 1 µM
[29] = second compound 3.16 µM, first compound 3.16 µM
[30] = second compound 3.16 µM, first compound 10 µM
[31] = second compound 10 µM, first compound 0.0316 µM
[32] = second compound 10 µM, first compound 0.1 µM
[33] = second compound 10 µM, first compound 0.316 µM
[34] = second compound 10 µM, first compound 1 µM
[35] = second compound 10 µM, first compound 3.16 µM
[36] = second compound 10 µM, first compound 10 µM
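Note: spheroids exposed to the agents for 7 days before readout.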
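Throughout, for viability, T/C: percent of luminescence signal in DMSO vehicle wells taken as 100% viability.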

`CC(=O)O[C@H]1C(=O)[C@@]2(C)[C@H]([C@H](OC(=O)c3ccccc3)[C@]3(O)C[C@H](OC(=O)[C@H](O)[C@@H](NC(=O)c4ccccc4)c4ccccc4)C(C)=C1C3(C)C)[C@]1(OC(C)=O)CO[C@@H]1C[C@@H]2O` + Cc1[nH]c2ccc(F)cc2c1-c1nc2c3cccnc3c3ncccc3c2[nH]1 gave an IC50 (second compound 0.0316 µM) of 0.343 µM, an IC50 (second compound 0.1 µM) of 0.406 µM and an IC50 (second compound 0.316 µM) of 0.436 µM. The IC50 (second compound 1 µM) was 0.402 µM, the IC50 (second compound 3.16 µM) was 0.385 µM and the IC50 (second compound 10 µM) was 0.298 µM. The viability, T/C [1] was 103%, the viability, T/C [2] was 81.4% and the viability, T/C [3] was 57.7%. It also gave a viability, T/C [4] of 4.13%, a viability, T/C [5] of 0.17% and a viability, T/C [6] of 0.27%. The viability, T/C [7] was 99%, the viability, T/C [8] was 96.2% and the viability, T/C [9] was 63.1%. For the same compound, the viability, T/C [10] was 2.41%, the viability, T/C [11] was 0.19% and the viability, T/C [12] was 0.28%. The viability, T/C [13] was 102%, the viability, T/C [14] was 87.5% and the viability, T/C [15] was 67.7%. For the same compound, the viability, T/C [16] was 5.02%, the viability, T/C [17] was 0.14% and the viability, T/C [18] was 0.29%. For the same compound, the viability, T/C [19] was 90.2%, the viability, T/C [20] was 82.3% and the viability, T/C [21] was 61.9%. The viability, T/C [22] was 6.01%, the viability, T/C [23] was 0.1% and the viability, T/C [24] was 0.41%. For the same compound, the viability, T/C [25] was 61.7%, the viability, T/C [26] was 76.5% and the viability, T/C [27] was 58.6%. For the same compound, the viability, T/C [28] was 6.91%, the viability, T/C [29] was 0.18% and the viability, T/C [30] was 0.37%. The viability, T/C [31] was 88.9%, the viability, T/C [32] was 63.2% and the viability, T/C [33] was 55.9%. The viability, T/C [34] was 9.43%, the viability, T/C [35] was 0.43% and the viability, T/C [36] was 0.5%.

With `C=CC(=O)N1CCN(c2nc(=O)n(-c3c(C)ccnc3C(C)C)c3nc(-c4c(O)cccc4F)c(F)cc23)C(C)C1` (stereo unspecified) + CN(C)c1ccc(Nc2c3ccc(NC(=O)CCN4CCCC4)cc3nc3cc(NC(=O)CCN4CCCC4)ccc23)cc1 the IC50 (second compound 0.0316 µM) was > 10 µM, the IC50 (second compound 0.1 µM) was > 10 µM and the IC50 (second compound 0.316 µM) was > 10 µM. For the same compound, the IC50 (second compound 1 µM) was > 10 µM, the IC50 (second compound 3.16 µM) was > 10 µM and the IC50 (second compound 10 µM) was > 10 µM. For the same compound, the viability, T/C [1] was 103%, the viability, T/C [2] was 91.4% and the viability, T/C [3] was 93.6%. The viability, T/C [4] was 104%, the viability, T/C [5] was 111% and the viability, T/C [6] was 95.4%. For the same compound, the viability, T/C [7] was 105%, the viability, T/C [8] was 92.2% and the viability, T/C [9] was 104%. It also gave a viability, T/C [10] of 97.6%, a viability, T/C [11] of 111% and a viability, T/C [12] of 104%. It also gave a viability, T/C [13] of 104%, a viability, T/C [14] of 102% and a viability, T/C [15] of 91.6%. The viability, T/C [16] was 114%, the viability, T/C [17] was 106% and the viability, T/C [18] was 110%. The viability, T/C [19] was 112%, the viability, T/C [20] was 96.3% and the viability, T/C [21] was 105%. For the same compound, the viability, T/C [22] was 97.6%, the viability, T/C [23] was 120% and the viability, T/C [24] was 108%. It also gave a viability, T/C [25] of 94.8%, a viability, T/C [26] of 103% and a viability, T/C [27] of 108%. It also gave a viability, T/C [28] of 108%, a viability, T/C [29] of 114% and a viability, T/C [30] of 108%. It also gave a viability, T/C [31] of 103%, a viability, T/C [32] of 96% and a viability, T/C [33] of 96.8%. For the same compound, the viability, T/C [34] was 106%, the viability, T/C [35] was 109% and the viability, T/C [36] was 100%.

For `CC(C)n1c(=O)n(C)c2cnc3cc(F)c(-c4ccc(OCCCN5CCCCC5)nc4)cc3c21` + CN(C)c1ccc(Nc2c3ccc(NC(=O)CCN4CCCC4)cc3nc3cc(NC(=O)CCN4CCCC4)ccc23)cc1, the IC50 (second compound 0.0316 µM) was > 10 µM, the IC50 (second compound 0.1 µM) was > 10 µM and the IC50 (second compound 0.316 µM) was > 10 µM. For the same compound, the IC50 (second compound 1 µM) was > 10 µM, the IC50 (second compound 3.16 µM) was > 10 µM and the IC50 (second compound 10 µM) was > 10 µM. For the same compound, the viability, T/C [1] was 108%, the viability, T/C [2] was 98.2% and the viability, T/C [3] was 118%. For the same compound, the viability, T/C [4] was 116%, the viability, T/C [5] was 122% and the viability, T/C [6] was 91.8%. The viability, T/C [7] was 105%, the viability, T/C [8] was 112% and the viability, T/C [9] was 115%. It also gave a viability, T/C [10] of 119%, a viability, T/C [11] of 113% and a viability, T/C [12] of 91.9%. It also gave a viability, T/C [13] of 94.5%, a viability, T/C [14] of 113% and a viability, T/C [15] of 115%. The viability, T/C [16] was 122%, the viability, T/C [17] was 117% and the viability, T/C [18] was 100%. It also gave a viability, T/C [19] of 101%, a viability, T/C [20] of 105% and a viability, T/C [21] of 111%. It also gave a viability, T/C [22] of 113%, a viability, T/C [23] of 109% and a viability, T/C [24] of 99.6%. It also gave a viability, T/C [25] of 105%, a viability, T/C [26] of 113% and a viability, T/C [27] of 121%. For the same compound, the viability, T/C [28] was 108%, the viability, T/C [29] was 117% and the viability, T/C [30] was 83.5%. The viability, T/C [31] was 100%, the viability, T/C [32] was 92% and the viability, T/C [33] was 99%. It also gave a viability, T/C [34] of 112%, a viability, T/C [35] of 112% and a viability, T/C [36] of 59.4%.
